Results reported in US6864287B1, “Derivatives of dicarboxylic acid having pharmaceutical properties” (Bayer Aktiengesellschaft, priority 1999, dated 2005).
Values belong to the molecule of their own block, whether it stands above or below them.

Columns and labels:
arteria saphena = assay: Vasorelaxant action in vitro (phenylephrin-contracted artery rings); parameters: species or system Rabbits; conditions: Oryctolagus cuniculus; rabbit arteria saphena rings, contraction induced by phenylephrin; read-out: IC50 (concentration reducing the phenylephrin-induced contraction by 50%)
Experimental: Vaso Relaxant Action in Vitro
Rabbits are anaesthetized by intravenous injection of thiopental sodium […] (about 50 mg/kg) and exsanguinated. The arteria saphena is removed and divided into 3 mm wide rings. The rings are individually mounted on in each case one triangular pair of hooks, open at the end, made of 0.3 mm strong special wire (Remanium®). Under a pretension, each ring is transferred into 5 ml organ baths containing a warm, carbogen-aerated Krebs-Henseleit solution at 37° C. having the following composition (mM): NaCl: 119; KCl: 4.8; CaCl2×2H2O: 1; MgSO4×7H2O: 1.4; KH2PO4: 1.2; NaHCO3: 25; glucose: 10; bovine serum albumin: 0.001%. The contractility is detected using Statham UC2 cells, amplified and digitalized by means of A/D converters (DAS-1802 HC, Keithley Instruments Munich), and recorded in parallel on linear recorders. Contractions are induced by addition of phenylephrin.
After several (in general 4) control cycles, the substance to be investigated is added in each further passage in increasing dosage, and the height of the contraction achieved under the influence of the test substance is compared with the height of the contraction achieved in the last preliminary passage. From this, the concentration which is necessary in order to reduce the contraction achieved in the preliminary control by 50% (IC50) is calculated. The standard administration volume is 5 μl. The proportion of DMSO in the bath solution corresponds to 0.1%.

Heme-free sGC = molecular target: T1, Heme-free sGC (Rattus norvegicus, UniProt P20595); assay: Stimulation of recombinant soluble guanylate cyclase (sGC) in vitro, heme-free enzyme; type: biochemical
T1 construct: made in house; host or cells: baculovirus/Sf9 insect cells
T1 sequence (P20595 1-619): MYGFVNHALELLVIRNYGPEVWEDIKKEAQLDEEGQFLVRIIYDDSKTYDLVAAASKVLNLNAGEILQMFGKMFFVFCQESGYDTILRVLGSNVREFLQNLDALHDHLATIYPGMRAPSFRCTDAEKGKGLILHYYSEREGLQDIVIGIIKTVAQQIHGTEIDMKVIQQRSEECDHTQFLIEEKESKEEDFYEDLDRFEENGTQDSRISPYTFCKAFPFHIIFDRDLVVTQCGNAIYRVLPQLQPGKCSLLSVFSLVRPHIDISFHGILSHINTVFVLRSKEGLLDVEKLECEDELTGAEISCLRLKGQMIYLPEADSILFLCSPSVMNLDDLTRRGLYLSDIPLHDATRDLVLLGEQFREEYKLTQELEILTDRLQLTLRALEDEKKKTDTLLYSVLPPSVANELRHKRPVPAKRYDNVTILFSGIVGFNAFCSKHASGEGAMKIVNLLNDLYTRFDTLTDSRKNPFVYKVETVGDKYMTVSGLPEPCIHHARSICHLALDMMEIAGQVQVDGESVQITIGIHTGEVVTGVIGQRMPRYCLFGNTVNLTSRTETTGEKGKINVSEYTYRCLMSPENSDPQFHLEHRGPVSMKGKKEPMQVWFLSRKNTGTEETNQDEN
T1 sequence (P19686 1-690 partner): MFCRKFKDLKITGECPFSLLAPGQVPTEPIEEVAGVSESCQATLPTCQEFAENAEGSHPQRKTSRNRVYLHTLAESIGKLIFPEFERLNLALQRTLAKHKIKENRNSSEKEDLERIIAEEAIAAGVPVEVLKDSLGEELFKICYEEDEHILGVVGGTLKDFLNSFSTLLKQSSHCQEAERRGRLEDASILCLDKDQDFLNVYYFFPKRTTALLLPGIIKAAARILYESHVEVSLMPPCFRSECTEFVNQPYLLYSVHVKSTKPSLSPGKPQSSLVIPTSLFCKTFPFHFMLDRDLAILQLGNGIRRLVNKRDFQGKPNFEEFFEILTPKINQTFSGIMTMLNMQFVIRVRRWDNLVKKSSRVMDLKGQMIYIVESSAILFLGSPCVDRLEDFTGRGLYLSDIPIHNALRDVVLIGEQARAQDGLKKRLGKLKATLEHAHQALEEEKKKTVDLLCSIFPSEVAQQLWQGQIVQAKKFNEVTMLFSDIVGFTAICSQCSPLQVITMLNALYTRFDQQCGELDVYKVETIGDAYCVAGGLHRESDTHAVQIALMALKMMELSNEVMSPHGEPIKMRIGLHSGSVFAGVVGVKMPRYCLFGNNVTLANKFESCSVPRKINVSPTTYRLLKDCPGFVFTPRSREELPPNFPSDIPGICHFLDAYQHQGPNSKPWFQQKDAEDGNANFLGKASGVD
Experimental: (§1) Stimulation of Recombinant Soluble […] Cyclase (sGC) in Vitro
(§2) The investigation on the stimulation of recombinant soluble guanylate cyclase (sGC) and the compounds according to the invention with and without sodium nitroprusside and with and without the heme-dependent sGC inhibitor 1H-1,2,4-oxadiazole-(4,3a)-quinoxalin-1-one (ODQ) were carried out by the method described in detail in the following literature reference: M. Hoenicka, E. M. Becker, H. Apeler, T. Sirichoke, H. Schroeder. R Gerzer and J.-P. Stasch: Purified soluble guanylyl cyclase expressed in baculovirus/Sf9 system: stimulation by YC-1, nitric oxide, and carbon oxide. J. Mol, Med. 77 (1999): 14-23.
Heme-free guanylate cyclase was obtained by adding Tween 20 to the sample buffer (final concentration 0.5%).
(§3) Activation of sGC by a test substance is stated as n-fold stimulation of basal activity.

Heme-containing sGC = molecular target: T2, Heme-containing sGC (Rattus norvegicus, UniProt P20595); assay: Stimulation of recombinant soluble guanylate cyclase (sGC) in vitro, heme-containing enzyme; type: biochemical
T2 construct: made in house; host or cells: baculovirus/Sf9 insect cells
T2 sequence (P20595 1-619): T1 sequence (P20595 1-619)
T2 sequence (P19686 1-690 partner): T1 sequence (P19686 1-690 partner)
Experimental: as §1, §2, §3

IC50 (arteria saphena): 26 nM
SMILES: O=C(O)CCCCC(/C=C/c1ccccc1CCc1ccccc1)Cc1ccc(C(=O)O)cc1 (centres unmarked) [Example 23]

IC50 (arteria saphena): 608 nM
SMILES: O=C(O)CCCCC(/C=C/c1ccccc1OCCCCCc1ccccc1)Cc1ccccc1C(=O)O (centres unmarked) [Example 60]

Stimulation (n-fold), + ODQ (10 μM) (Heme-free sGC; 0.1 μM Ex. 16): 12 n-fold
Stimulation (n-fold), + ODQ (10 μM) (Heme-free sGC; 1.0 μM Ex. 16): 94 n-fold
Stimulation (n-fold), + ODQ (10 μM) (Heme-free sGC; 10 μM Ex. 16): 291 n-fold
Stimulation (n-fold), Basal (Heme-free sGC; 0.1 μM Ex. 16): 11 n-fold
Stimulation (n-fold), Basal (Heme-free sGC; 1.0 μM Ex. 16): 54 n-fold
Stimulation (n-fold), Basal (Heme-free sGC; 10 μM Ex. 16): 204 n-fold
Stimulation (n-fold), + ODQ (10 μM) (Heme-containing sGC; 0.1 μM Ex. 16): 27 n-fold
Stimulation (n-fold), + ODQ (10 μM) (Heme-containing sGC; 1.0 μM Ex. 16): 52 n-fold
Stimulation (n-fold), + ODQ (10 μM) (Heme-containing sGC; 10 μM Ex. 16): 88 n-fold
Stimulation (n-fold), + SNP (0.1 μM) (Heme-containing sGC; 0.1 μM Ex. 16): 14 n-fold
Stimulation (n-fold), + SNP (0.1 μM) (Heme-containing sGC; 1.0 μM Ex. 16): 33 n-fold
Stimulation (n-fold), + SNP (0.1 μM) (Heme-containing sGC; 10 μM Ex. 16): 29 n-fold
Stimulation (n-fold), Basal (Heme-containing sGC; 0.1 μM Ex. 16): 4 n-fold
Stimulation (n-fold), Basal (Heme-containing sGC; 1.0 μM Ex. 16): 9 n-fold
Stimulation (n-fold), Basal (Heme-containing sGC; 10 μM Ex. 16): 19 n-fold
IC50 (arteria saphena): 5 nM
SMILES: O=C(O)CCCCC(/C=C/c1ccccc1OCCCCCc1ccccc1)Cc1ccc(C(=O)O)cc1 (centres unmarked) [Example 16]

IC50 (arteria saphena): 41 nM
SMILES: O=C(O)CCCCC(CCc1ccccc1CCc1ccccc1)Cc1ccc(C(=O)O)cc1 (centres unmarked) [Example 40]

IC50 (arteria saphena): 2.8 nM
SMILES: O=C(O)CCCCC(CCc1ccccc1OCCCCCc1ccccc1)Cc1ccc(C(=O)O)cc1 (centres unmarked) [Example 41]

Second part, the molecule before the results:

SMILES: N#Cc1ccc(CC(/C=C/c2ccccc2OCCCCCc2ccccc2)CCCCC(=O)O)cc1 (centres unmarked) [Example 13]
IC50 (arteria saphena): 2600 nM

SMILES: O=C(O)CCCCC(/C=C/c1ccccc1OCCCOc1ccccc1)Cc1ccc(C(=O)O)cc1 (centres unmarked) [Example 24]
IC50 (arteria saphena): 6200 nM

SMILES: Cc1ccc(/C=C/C(CCCCC(=O)O)Cc2ccc(C(=O)O)cc2)c(OCc2ccccc2)c1 (centres unmarked) [Example 12]
IC50 (arteria saphena): 112 nM

SMILES: CC(C)(C)c1ccc(COc2ccccc2/C=C/C(CCCCC(=O)O)Cc2ccc(C(=O)O)cc2)cc1 (centres unmarked) [Example 34]
IC50 (arteria saphena): 0.35 nM

SMILES: O=C(O)CCCCC(/C=C/c1ccccc1OCc1ccccc1Cl)Cc1ccc(C(=O)O)cc1 (centres unmarked) [Example 14]
IC50 (arteria saphena): 8.7 nM

SMILES: O=C(O)CCCCC(CCCc1cccc(OCCCCc2ccccc2)c1)Cc1ccc(C(=O)O)cc1 (centres unmarked) [Example 44, 6-(4Carboxybenzyl)-9-(3-(4-phenylbutoxy)phenyl)nonanoic acid]
IC50 (arteria saphena): 7800 nM

SMILES: O=c1onc2cnc3ccccc3n12 [ODQ, 1H-1,2,4-oxadiazole-(4,3a)-quinoxalin-1-one, reference compound]
Stimulation (n-fold), ODQ alone (Heme-free sGC; ODQ 10 μM, no Ex. 16 (0 μM)): 1 n-fold
Stimulation (n-fold), ODQ alone (Heme-containing sGC; ODQ 10 μM, no Ex. 16 (0 μM)): 1 n-fold

SMILES: CCc1ccc(COc2ccccc2/C=C/C(CCCCC(=O)O)Cc2ccc(C(=O)O)cc2)cc1 (centres unmarked) [Example 35]
IC50 (arteria saphena): 1.7 nM
